Results as given in the NIST ThermoML archive (doi:10.1016/j.jct.2007.04.004).
± gives the expanded uncertainty stated by the source.

Columns and labels:
[1] = Liquid; for mass density: 101.33 kPa, Pycnometric method; for Normal boiling temperature: Ebulliometric method (Recirculating still)
[2] = excess molar enthalpy (molar enthalpy of mixing); xn = mol fraction of the nth substance listed; conditions: 298.15 K, 101 kPa, Liquid

## O=C1CCCCC1 [cyclohexanone]
[1]; 303.15 K
  mass density: 937.58 ± 5 kg/m3
[1]; 426.3 K
  vapor or sublimation pressure: 95.3 ± 5 kPa
[1]
  Normal boiling temperature: 155.69 ± 0.41 °C

## CC(=O)CC(C)C [4-methylpentan-2-one]
[1]; 298.15 K
  mass density: 796.33 ± 3.6 kg/m3
[1]; 386.7 K
  vapor or sublimation pressure: 95.3 ± 5 kPa
[1]
  Normal boiling temperature: 117.39 ± 0.41 °C

## CCC(C)=O [butanone]
[1]; 298.15 K
  mass density: 799.71 ± 3.7 kg/m3
[1]; 350.9 K
  vapor or sublimation pressure: 95.3 ± 5 kPa
[1]
  Normal boiling temperature: 79.54 ± 0.41 °C

## CC(=O)CC(C)C [4-methylpentan-2-one] + C[S+](C)[O-]
[2]; x1 = 0.0387
  excess molar enthalpy: 0.0314 ± 0.00222 kcal/mol
[2]; x1 = 0.0839
  excess molar enthalpy: 0.0636 ± 0.00359 kcal/mol
[2]; x1 = 0.1332
  excess molar enthalpy: 0.0937 ± 0.00478 kcal/mol
[2]; x1 = 0.1874
  excess molar enthalpy: 0.113 ± 0.0055 kcal/mol
[2]; x1 = 0.2391
  excess molar enthalpy: 0.131 ± 0.00621 kcal/mol
[2]; x1 = 0.2901
  excess molar enthalpy: 0.143 ± 0.00669 kcal/mol
[2]; x1 = 0.3377
  excess molar enthalpy: 0.158 ± 0.00717 kcal/mol
[2]; x1 = 0.3804
  excess molar enthalpy: 0.167 ± 0.00765 kcal/mol
[2]; x1 = 0.4029
  excess molar enthalpy: 0.172 ± 0.00789 kcal/mol
[2]; x1 = 0.4617
  excess molar enthalpy: 0.17 ± 0.00789 kcal/mol
[2]; x1 = 0.5304
  excess molar enthalpy: 0.164 ± 0.00741 kcal/mol
[2]; x1 = 0.6116
  excess molar enthalpy: 0.144 ± 0.00669 kcal/mol
[2]; x1 = 0.6917
  excess molar enthalpy: 0.114 ± 0.0055 kcal/mol
[2]; x1 = 0.7918
  excess molar enthalpy: 0.0687 ± 0.00359 kcal/mol
[2]; x1 = 0.837
  excess molar enthalpy: 0.0539 ± 0.00311 kcal/mol
[2]; x1 = 0.9237
  excess molar enthalpy: 0.0255 ± 0.00198 kcal/mol

## C[S+](C)[O-] [dimethyl sulfoxide]
[1]; 298.15 K
  mass density: 1095.37 ± 6.8 kg/m3
[1]; 461 K
  vapor or sublimation pressure: 95.3 ± 5 kPa
[1]
  Normal boiling temperature: 189.04 ± 0.41 °C

## CCC(C)=O [butanone] + C[S+](C)[O-]
[2]; x1 = 0.054
  excess molar enthalpy: 0.0179 ± 0.00167 kcal/mol
[2]; x1 = 0.1094
  excess molar enthalpy: 0.0357 ± 0.00239 kcal/mol
[2]; x1 = 0.1725
  excess molar enthalpy: 0.0509 ± 0.00311 kcal/mol
[2]; x1 = 0.2385
  excess molar enthalpy: 0.0621 ± 0.00335 kcal/mol
[2]; x1 = 0.2956
  excess molar enthalpy: 0.0729 ± 0.00382 kcal/mol
[2]; x1 = 0.3507
  excess molar enthalpy: 0.0832 ± 0.0043 kcal/mol
[2]; x1 = 0.4007
  excess molar enthalpy: 0.0891 ± 0.00454 kcal/mol
[2]; x1 = 0.4448
  excess molar enthalpy: 0.0936 ± 0.00478 kcal/mol
[2]; x1 = 0.4881
  excess molar enthalpy: 0.0944 ± 0.00478 kcal/mol
[2]; x1 = 0.5787
  excess molar enthalpy: 0.0966 ± 0.00478 kcal/mol
[2]; x1 = 0.6433
  excess molar enthalpy: 0.0864 ± 0.0043 kcal/mol
[2]; x1 = 0.7077
  excess molar enthalpy: 0.0737 ± 0.00382 kcal/mol
[2]; x1 = 0.7797
  excess molar enthalpy: 0.0581 ± 0.00335 kcal/mol
[2]; x1 = 0.856
  excess molar enthalpy: 0.0356 ± 0.00239 kcal/mol
[2]; x1 = 0.9297
  excess molar enthalpy: 0.0135 ± 0.00151 kcal/mol

## O=C1CCCCC1 [cyclohexanone] + C[S+](C)[O-]
[2]; x1 = 0.0386
  excess molar enthalpy: 0.0249 ± 0.00196 kcal/mol
[2]; x1 = 0.0873
  excess molar enthalpy: 0.0566 ± 0.00311 kcal/mol
[2]; x1 = 0.1405
  excess molar enthalpy: 0.0601 ± 0.0239 kcal/mol
[2]; x1 = 0.1917
  excess molar enthalpy: 0.105 ± 0.00526 kcal/mol
[2]; x1 = 0.2431
  excess molar enthalpy: 0.121 ± 0.00574 kcal/mol
[2]; x1 = 0.3037
  excess molar enthalpy: 0.135 ± 0.00645 kcal/mol
[2]; x1 = 0.3596
  excess molar enthalpy: 0.152 ± 0.00693 kcal/mol
[2]; x1 = 0.4115
  excess molar enthalpy: 0.161 ± 0.00741 kcal/mol
[2]; x1 = 0.5044
  excess molar enthalpy: 0.165 ± 0.00765 kcal/mol
[2]; x1 = 0.5686
  excess molar enthalpy: 0.158 ± 0.00717 kcal/mol
[2]; x1 = 0.6399
  excess molar enthalpy: 0.147 ± 0.00693 kcal/mol
[2]; x1 = 0.7238
  excess molar enthalpy: 0.126 ± 0.00598 kcal/mol
[2]; x1 = 0.8119
  excess molar enthalpy: 0.0913 ± 0.00454 kcal/mol
[2]; x1 = 0.9101
  excess molar enthalpy: 0.048 ± 0.00287 kcal/mol
